According to patent US7396837B2, “Antitumoral analogs of lamellarins” (Pharma Mar, S.A.U., priority 2002, dated 2008):
Where two headings read alike, the source gives them in different places.

What was measured:
Type in all cases: cell-based
[1] = test system: SK-MEL-28; assay: SRB colorimetric cell growth inhibition assay, SK-MEL-28; settings: for GI50: GI=growth inhibition, read-out: GI50 MEL-28; for CC50: cell killing (cytotoxic effect), read-out: LC50 MEL-28
In short: (§1)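 After uninterrupted treatment, cultures are fixed and stained with sulforhodamine B, and absorbance reflects cell growth and viability. Each value represents the average of triplicate wells with SD.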

[2] = test system: LoVo-Dox; assay: SRB colorimetric cell growth inhibition assay, LoVo-Dox (MDR); settings: Homo sapiens, LOVO-DOX; for GI50: GI=growth inhibition, read-out: GI50 LOVO-DOX; for CC50: cell killing (cytotoxic effect), read-out: LC50 LOVO-DOX; for IC (TGI): total growth inhibition (cytostatic effect), read-out: TGI LOVO-DOX
In short: as §1

[3] = test system: LoVo; assay: SRB colorimetric cell growth inhibition assay, LoVo; settings: Homo sapiens, LoVo; for GI50: GI=growth inhibition, read-out: GI50 LOVO; for CC50: cell killing (cytotoxic effect), read-out: LC50 LOVO; for IC (TGI): total growth inhibition (cytostatic effect), read-out: TGI LOVO
In short: as §1

[4] = test system: A-549; assay: SRB colorimetric cell growth inhibition assay, A-549; settings: Homo sapiens, A549, A-549; for GI50: GI=growth inhibition, read-out: GI50 A-549; for CC50: cell killing (cytotoxic effect), read-out: LC50 A-549; for IC (TGI): total growth inhibition (cytostatic effect), read-out: TGI A-549
In short: as §1

[5] = test system: K-562; assay: SRB colorimetric cell growth inhibition assay, K-562; settings: Homo sapiens, K562, K-562; for GI50: GI=growth inhibition, read-out: GI50 K-562; for CC50: cell killing (cytotoxic effect), read-out: LC50 K-562; for IC (TGI): total growth inhibition (cytostatic effect), read-out: TGI K-562
In short: as §1

[6] = SRB colorimetric cell growth inhibition assay, H-MEC-1; settings: human, H-MEC-1, cell killing (cytotoxic effect), read-out: LC50 H-MEC-1
Description: (§2) A colorimetric type of assay, using sulforhodamine B (SRB) reaction has been adapted for a quantitative measurement of cell growth and viability (following the technique described by P. A. Skehan, et al., J. Natl. Cancer Inst. 1990, 82, 1107-1112).
(§3) This form of assay employs 96 well cell culture microplates of 9 mm diameter (T. Mosmann et al., J. of Immunological Methods 1983, 65, 55-63; G. T. Faircloth et al., J. of Tissue and Culture Methods 1988, 11, 201-205).
(§4) Most of the cell lines are obtained from American Type Culture Collection (ATCC) derived from different human cancer types.
(§5) The values for mean +/− SD of data from triplicate wells are calculated. Some parameters for cellular responses can be calculated: GI=growth inhibition, TGI=total growth inhibition (cytostatic effect) and LC=cell killing (cytotoxic effect).

[7] = test system: H-MEC-1; assay: as above; settings: Homo sapiens, HMEC-1, H-MEC-1; for GI50: GI=growth inhibition, read-out: GI50 H-MEC-1; for IC (TGI): total growth inhibition (cytostatic effect), read-out: TGI H-MEC-1
Description: as §2, §3, §4, §5

[8] = test system: SK-BR-3; assay: SRB colorimetric cell growth inhibition assay, SK-BR-3; settings: for CC50: cell killing (cytotoxic effect), read-out: LC50 SK-BR-3; for GI50: GI=growth inhibition, read-out: GI50 SK-BR-3
In short: as §1

[9] = test system: HT-29; assay: SRB colorimetric cell growth inhibition assay, HT-29; settings: for GI50: GI=growth inhibition, read-out: GI50 HT-29; for CC50: cell killing (cytotoxic effect), read-out: LC50 HT-29; for IC (TGI): total growth inhibition (cytostatic effect), read-out: TGI HT-29
In short: as §1

[10] = test system: DU-145; assay: SRB colorimetric cell growth inhibition assay, DU-145; settings: for GI50: GI=growth inhibition, read-out: GI50 DU-145; for CC50: cell killing (cytotoxic effect), read-out: LC50 DU-145
In short: as §1

[11] = test system: SKOV-3; assay: SRB colorimetric cell growth inhibition assay, SKOV-3; settings: Homo sapiens; for GI50: SK-OV-3, SKOV-3, GI=growth inhibition, read-out: GI50 SKOV-3; for LC50 (concentration causing 50% net cell killing) / IC (TGI): SK-OV-3, SKOV-3; for LC50 (concentration causing 50% net cell killing): cell killing (cytotoxic effect), read-out: LC50 SKOV-3; for IC (TGI): total growth inhibition (cytostatic effect), read-out: TGI SKOV-3
Description: as §2, §3, §4, §5

[12] = test system: IGROV; assay: SRB colorimetric cell growth inhibition assay, IGROV; settings: IGROV; for CC50: cell killing (cytotoxic effect), read-out: LC50 IGROV; for IC (TGI): total growth inhibition (cytostatic effect), read-out: TGI IGROV; for GI50: GI=growth inhibition, read-out: GI50 IGROV
In short: as §1

[13] = test system: IGROV-ET; assay: SRB colorimetric cell growth inhibition assay, IGROV-ET (ET-743 resistant); settings: IGROV-ET; for CC50: cell killing (cytotoxic effect), read-out: LC50 IGROV-ET; for IC (TGI): total growth inhibition (cytostatic effect), read-out: TGI IGROV-ET; for GI50: GI=growth inhibition, read-out: GI50 IGROV-ET
In short: as §1

[14] = test system: PANC-1; assay: SRB colorimetric cell growth inhibition assay, PANC-1; settings: for CC50: cell killing (cytotoxic effect), read-out: LC50 PANC-1; for GI50: GI=growth inhibition, read-out: GI50 PANC-1
In short: as §1

[15] = test system: LNCaP; assay: SRB colorimetric cell growth inhibition assay, LNCaP; settings: Homo sapiens, LNCaP, LN-caP; for GI50: GI=growth inhibition, read-out: GI50 LN-caP; for CC50: cell killing (cytotoxic effect), read-out: LC50 LN-caP; for IC (TGI): total growth inhibition (cytostatic effect), read-out: TGI LN-caP
In short: as §1

[16] = Homo sapiens, SK-MEL-28, MEL-28

COc1cc2ccn3c(c(-c4ccc(OC(=O)[C@@H](N)Cc5ccccc5)c(OC)c4)c4c5cc(OC)c(OC(=O)[C@@H](N)Cc6ccccc6)cc5oc(=O)c43)c2cc1OC [Compound 18]
GI50 ([1]; MEL-28): 0.524 µM | CC50 ([1]; MEL-28): 4.43 µM | TGI MEL-28 ([1]; MEL-28, total growth inhibition (cytostatic effect)): 1.44E−06 Molar | GI50 [2]: 1.08 µM | CC50 [2]: 12.1 µM | IC (TGI) [2]: 3.67 µM | GI50 [3]: 0.664 µM | CC50 [3]: 12.3 µM | IC (TGI) [3]: 2.37 µM | GI50 [4]: 1.61 µM | CC50 [4]: 9.99 µM | IC (TGI) [4]: 4 µM | GI50 [5]: 0.558 µM | CC50 [5]: 8.64 µM | IC (TGI) [5]: 1.51 µM | LC50 (concentration giving 50% net cell killing) [6]: 2.93 µM | GI50 [7]: 0.494 µM | IC (TGI) [7]: 0.846 µM | CC50 ([8]; Homo sapiens, SK-BR-3, SK-BR-3): 10.5 µM | GI50 ([8]; SK-BR-3): 0.458 µM | TGI SK-BR-3 ([8]; SK-BR-3, total growth inhibition (cytostatic effect)): 2.14E−06 Molar | GI50 ([9]; HT-29): 0.819 µM | CC50 ([9]; Homo sapiens, HT-29, HT-29): 12.3 µM | IC (TGI) ([9]; Homo sapiens, HT-29, HT-29): 4.54 µM | GI50 ([10]; DU-145): 0.505 µM | TGI DU-145 ([10]; DU-145, total growth inhibition (cytostatic effect)): 1.41E−06 Molar | CC50 ([10]; Homo sapiens, DU-145, DU-145): 7.04 µM | GI50 [11]: 1.22 µM | LC50 (concentration causing 50% net cell killing) [11]: 6.51 µM | IC (TGI) [11]: 2.82 µM | CC50 ([12]; Homo sapiens): 7.91 µM | IC (TGI) ([12]; Homo sapiens): 3.21 µM | GI50 [12]: 1.31 µM | CC50 ([13]; Homo sapiens): 12.3 µM | IC (TGI) ([13]; Homo sapiens): 5.14 µM | GI50 [13]: 2 µM | CC50 ([14]; Homo sapiens, PANC-1, PANC-1): 12.3 µM | GI50 ([14]; PANC-1): 0.992 µM | TGI PANC-1 ([14]; PANC-1, total growth inhibition (cytostatic effect)): 3.70E−06 Molar | GI50 [15]: 0.359 µM | CC50 [15]: 4.27 µM | IC (TGI) [15]: 1.27 µM

COc1cc(-c2c3n(c4c(=O)oc5cc(O)c(OC)cc5c24)CCc2c-3cc(OC)c(OC)c2O)ccc1O [Compound 1]
GI50 [1, 16]: 2.24 µM | CC50 [1, 16]: 11.3 µM | IC (TGI) ([1]; Homo sapiens, SK-MEL-28, MEL-28, total growth inhibition (cytostatic effect), read-out: TGI MEL-28): 5.04 µM | GI50 [2]: 0.801 µM | CC50 [2]: 18.8 µM | IC (TGI) [2]: 7.13 µM | GI50 [3]: 11.8 µM | CC50 [3]: 18.8 µM | IC (TGI) [3]: 57.6 µM | GI50 [4]: ≥ 1.88 µM | CC50 [4]: ≥ 1.88 µM | IC (TGI) [4]: 1.88 µM | GI50 [5]: 0.815 µM | CC50 [5]: 2.97 µM | IC (TGI) [5]: 2.11 µM | LC50 (concentration giving 50% net cell killing) ([6]; H-MEC-1 cells): 5.72 µM | GI50 [7]: 0.606 µM | IC (TGI) [7]: 1.38 µM | GI50 ([8]; Homo sapiens, SK-BR-3, SK-BR-3): 2.37 µM | CC50 ([8]; Homo sapiens, SK-BR-3, SK-BR-3): 18.8 µM | IC (TGI) ([8]; Homo sapiens, SK-BR-3, SK-BR-3, total growth inhibition (cytostatic effect), read-out: TGI SK-BR-3): 10.9 µM | GI50 ([9]; Homo sapiens, HT-29, HT-29): ≥ 18.8 µM | CC50 ([9]; Homo sapiens, HT-29, HT-29): 18.8 µM | IC (TGI) ([9]; Homo sapiens, HT-29, HT-29): 18.8 µM | GI50 ([10]; Homo sapiens, DU-145, DU-145): 8.24 µM | CC50 ([10]; Homo sapiens, DU-145, DU-145): 17 µM | IC (TGI) ([10]; Homo sapiens, DU-145, DU-145, total growth inhibition (cytostatic effect), read-out: TGI DU-145): 11.8 µM | GI50 [11]: 13.7 µM | LC50 (concentration causing 50% net cell killing) [11]: 18.8 µM | IC (TGI) [11]: 18.8 µM | GI50 ([12]; Homo sapiens): 0.493 µM | CC50 ([12]; Homo sapiens): 18.8 µM | IC (TGI) ([12]; Homo sapiens): 1.76 µM | GI50 ([13]; Homo sapiens): 0.444 µM | CC50 ([13]; Homo sapiens): 18.8 µM | IC (TGI) ([13]; Homo sapiens): 1.2 µM | GI50 ([14]; Homo sapiens, PANC-1, PANC-1): 2.2 µM | CC50 ([14]; Homo sapiens, PANC-1, PANC-1): 18.8 µM | IC (TGI) ([14]; Homo sapiens, PANC-1, PANC-1, total growth inhibition (cytostatic effect), read-out: TGI PANC-1): 7.94 µM | GI50 [15]: 0.277 µM | CC50 [15]: 7.85 µM | IC (TGI) [15]: 1.44 µM
